Measured values taken from ChEMBL document CHEMBL4651402, “Screening of ~5500 FDA-approved drugs and clinical candidates for anti-SARS-CoV-2 activity” (2021).
pIC50: −log10 of the molar value.

Test system: SARS-CoV-2
Experiment: microbe, parasite or virus in culture
Settings: Severe acute respiratory syndrome coronavirus 2, Vero C1008, 48 h; for IC50: read-out: pIC50 (converted)

SMILES | pIC50 | IC50 [µM]
CN(C)CCC=C1c2ccccc2C(C)(C)c2ccccc21 | < 4.70 | > 20
CN(C)C1CC(c2ccccc2)c2ccccc21 (stereo unspecified) | < 4.70 | > 20
CC12CCC3C(CC[C@H]4CC(O)CCC34C)C1CCC2O (stereo partly specified) | < 4.70 | > 20
CC1=N[C@H](C(=O)O)[C@@H](O)CN1 | < 4.70 | > 20
CN[C@@H]1[C@@H](O[C@H]2O[C@H](CO)[C@@H](N)[C@H](O)[C@H]2O)O[C@H]2C[C@@H](N)[C@@H](O[C@H]3[C@H](O)[C@@H](O)[C@H](N)C[C@@H]3N)O[C@@H]2[C@@H]1O | < 4.70 | > 20
O=S(=O)(O)CCN1CCN(CCO)CC1 | < 4.70 | > 20
CN(C)CCCSC(=N)N | < 4.70 | > 20
NCCOC[C@H](N)C(=O)O | < 4.70 | > 20
O=C(O)/C=C/c1c[nH]cn1 | < 4.70 | > 20
CNS(=O)(=O)Cc1ccc2[nH]cc(CCN(C)C)c2c1 | < 4.70 | > 20
O=C(O)C1CCc2cc(C3CCCCC3)c(Cl)cc21 (stereo unspecified) | < 4.70 | > 20
COc1cc2c(cc1O)CC1c3c(cc(O)c(OC)c3-2)CCN1C (stereo unspecified) | < 4.70 | > 20
CN1[C@@H]2CC[C@H]1CC(O)C2 (stereo partly specified) | < 4.70 | > 20
CN1CCCCC1c1ccc(-c2cccnc2)nc1 (stereo unspecified) | < 4.70 | > 20
CC(C)Nc1ccc(Nc2ccccc2)cc1 | < 4.70 | > 20
CC(=O)O[C@@]12CO[C@@H]1C[C@H](O)[C@@]1(C)C(=O)[C@H](O)C3=C(C)[C@@H](OC(=O)[C@H](O)[C@@H](NC(=O)OC(C)(C)C)c4ccccc4)C[C@](O)([C@@H](OC(=O)c4ccccc4)[C@H]21)C3(C)C | < 4.70 | > 20
COc1ccc2c(c1OC)C(=O)O[C@H]2[C@@H]1c2c(cc3c(c2OC)OCO3)CCN1C | < 4.70 | > 20
CN1N=C(N)c2cn(C3OC(COP(=O)(O)O)C(O)C3O)c3ncnc1c23 (stereo unspecified) | < 4.70 | > 20
O=c1[nH]c(=O)c2ccccc2o1 | < 4.70 | > 20
CC1(C)CN2C(=O)c3[nH]cnc3N(Cc3ccc(Cl)cc3)C2=N1 | < 4.70 | > 20
COC(=O)C1=COC(C)C2C[n+]3ccc4c([nH]c5ccccc54)c3CC12 (stereo unspecified) | < 4.70 | > 20

SMILES | pIC50 | IC50 [µM]
Cc1cccc(Cl)c1NC(=O)CCN1CCC[C@H]2CCC[C@@H]21 | < 4.70 | > 20
CCN(CC)C(=O)C1(c2ccccc2)CC1CN (stereo unspecified) | < 4.70 | > 20
CC[C@@H]1C2C[C@H](O)CC[C@]2(C)[C@H]2CC[C@]3(C)[C@@H]([C@H](C)CCC(=O)O)CC[C@H]3[C@@H]2[C@@H]1O (stereo partly specified) | < 4.70 | > 20
CC1C(=O)OC2C(O)C34C5CC(C(C)(C)C)C36C(OC(=O)C6O)OC4(C(=O)O5)C12O (stereo unspecified) | < 4.70 | > 20
CN[C@H](Cc1ccccc1)C(=O)N1CCC[C@H]1C(=O)N[C@H](C=O)CCCNC(=N)N | < 4.70 | > 20
COc1ccccc1N1CCN(CCCNc2cc(=O)n(C)c(=O)n2C)CC1 | < 4.70 | > 20
CCC(=O)OC1(c2ccccc2)CCN(C)CC1 | < 4.70 | > 20
O=C(O)c1cc(NC(=O)[C@H](Cc2ccccc2F)NC(=O)c2cc3[nH]cnc3cc2C(=O)NCC2CCCCCC2)cc(C(=O)O)c1 | < 4.70 | > 20
O=[N+]([O-])c1ccc(NN=C(c2ccc(O)cc2)c2ccc(O)cc2)c([N+](=O)[O-])c1 | < 4.70 | > 20
CNCC(O)c1cccc(O)c1 (stereo unspecified) | < 4.70 | > 20
CC(=O)NC(CCC(N)=O)C(=O)O (stereo unspecified) | < 4.70 | > 20
CN(c1nc2ccccc2s1)C1CCN(C[C@@H](O)COc2ccc(F)c(F)c2)CC1 | < 4.70 | > 20
O=P(O)(O)OCC(O)CO (stereo unspecified) | < 4.70 | > 20
OC[C@H]1O[C@H](O)[C@@H](O)[C@@H](O)[C@@H]1O | < 4.70 | > 20
COc1ccc(C(=O)N2CCCC2=O)cc1 | < 4.70 | > 20
COc1ccc([C@@H]2CNC(=O)[C@@H](Cc3cccc(C)c3)C2)cc1OC1CCCC1 | < 4.70 | > 20
CC(C)(C)C(=O)Oc1ccc2c(c1)O[C@@H](c1ccc(OCCN3CCCCC3)cc1)C1=C2COc2cc(OC(=O)C(C)(C)C)ccc21 | < 4.70 | > 20
Cc1ccnc(N)c1 | < 4.70 | > 20
CC1NCCc2cc(O)c(O)cc21 (stereo unspecified) | < 4.70 | > 20
CNc1cccc(NC(=O)NC2N=C(c3ccccn3)c3ccccc3N(CC(=O)C(C)(C)C)C2=O)c1 (stereo unspecified) | < 4.70 | > 20
CCC(=O)c1ccc(OCC(O)CN2CCN(c3ccccc3)CC2)cc1 (stereo unspecified) | < 4.70 | > 20

SMILES | pIC50 | IC50 [µM]
O=C(O)CCCNC(=O)c1cccnc1 | < 4.70 | > 20
CC(C)C(C)/C=C/C(C)C1CCC2C3=CC=C4CC(O)CCC4(C)[C@H]3CCC21C (stereo partly specified) | < 4.70 | > 20
CCC(=O)Nc1c(C)cc(C(=O)N2CCC(N(C)CCc3ccccc3)CC2)cc1C | < 4.70 | > 20
COc1ccc2c(c1)C[C@@H](C)N(CCc1ccc(N)cc1)CC2 | < 4.70 | > 20
CC(=O)C1CCC2C3CC[C@H]4C[C@H](O)CCC4(C)C3C(=O)CC12C (stereo partly specified) | < 4.70 | > 20
CCN(CC)CCOC(=O)C(c1ccccc1)C1(O)CCCC1 (stereo unspecified) | < 4.70 | > 20
CCn1c(=O)n(CCCN2CCN(c3cccc(Cl)c3)CC2)n[13c]1[13CH2][13CH3] | < 4.70 | > 20
CC1(C)SC2C(/N=C/N3CCCCCC3)C(=O)N2C1C(=O)O (stereo unspecified) | < 4.70 | > 20
CC(=O)/C=C(\C)NCCN/C(C)=C/C(C)=O | < 4.70 | > 20
Cc1cc(C)c2c3ccccc3n(Cc3ccc([C@@H](C(=O)N[C@@H](CO)c4ccccc4)C4CCCC4)cc3)c2n1 | < 4.70 | > 20
CC(=O)OCC(=O)C12N=C(C)OC1CC1C3CCC4=CC(=O)C=CC4(C)C3(F)C(O)CC12C (stereo unspecified) | < 4.70 | > 20
CC1=CC(=O)C2=C(C)CCC3[C@H](C)C(=O)O[C@@H]3[C@@H]12 (stereo partly specified) | < 4.70 | > 20
CS(=O)(=O)c1ccc([C@@H](O)[C@H](CF)NC(=O)C(Cl)Cl)cc1 | < 4.70 | > 20
CCN(CC)CC(=O)OCC(=O)C1(O)CCC2C3CCC4=CC(=O)CCC4(C)C3C(O)CC21C (stereo unspecified) | < 4.70 | > 20
CC1CC[C@@]2(OC1)OC1CC3C4CC[C@@H]5C[C@@H](O)CC[C@]5(C)C4CC[C@]3(C)C1[C@@H]2C (stereo partly specified) | < 4.70 | > 20
C[C@@H](NCCCCc1ccccc1)[C@@H](O)c1ccc2c(c1)CCS2 | < 4.70 | > 20
CC(C)CCCC(C)C1CCC2C3C(=O)C=C4CC(O)CCC4(C)C3CCC12C (stereo unspecified) | < 4.70 | > 20
CC1(O)CCC2C3CCC4=CC(=O)CCC4C3CCC21C (stereo unspecified) | < 4.70 | > 20
CC(=O)O[C@@H]1CC2(C)C(C(C)=O)CCC2C2CCC3=CC(=O)CCC3(C)C21 (stereo partly specified) | < 4.70 | > 20
CCC(/C=C/C(C)C1CCC2C3CC=C4CC(O)CCC4(C)C3CCC12C)C(C)C (stereo unspecified) | < 4.70 | > 20
CC(=O)OC1C([N+]2(C)CCCCC2)CC2C3CC[C@H]4C[C@H](OC(C)=O)C([N+]5(C)CCCCC5)CC4(C)C3CCC21C (stereo partly specified) | < 4.70 | > 20

SMILES | pIC50 | IC50 [µM]
CC(=O)OC1CCC2(C)C3CC(=O)C4(C)C(C(C)=O)=CCC4C3CC[C@H]2C1 (stereo partly specified) | < 4.70 | > 20
CC12CC(=O)C3C(CC[C@H]4CC(O)CCC34C)C1CCC2C(=O)CO (stereo partly specified) | < 4.70 | > 20
CC1(C)Oc2ccc(OC(F)(F)F)cc2[C@@H](N2Cc3ccccc3C2=O)C1O (stereo partly specified) | < 4.70 | > 20
CC(=O)C1CCC2C3CCC4=CC(=O)CCC4(C)C3C(O)CC12C (stereo unspecified) | < 4.70 | > 20
CC12CCC(=O)C(O)=C1CCC1C2CCC2(C)C1CC[C@]2(C)O (stereo partly specified) | < 4.70 | > 20
COCC(=O)Nc1ccc(/N=C(\C)N(C)C)cc1 | < 4.70 | > 20
C[C@@H]1NC(=O)CO[C@@H]1c1ccccc1 | < 4.70 | > 20
CC(=O)O[C@@H]1CCC2C3CCc4cc(O)ccc4C3CCC21C (stereo partly specified) | < 4.70 | > 20
CC(=O)OC1CCC2C3CCC4C/C(=N\Oc5ccc([N+](=O)[O-])cc5)C(Cl)CC4(C)C3CCC12C (stereo unspecified) | < 4.70 | > 20
COc1cc(N)c(Cl)cc1C(=O)N[C@H]1CCNC[C@H]1OC | < 4.70 | > 20
C[C@H](CCC(=O)O)[C@H]1CC[C@H]2[C@@H]3CCC4C[C@H](O)CC[C@]4(C)[C@H]3CC[C@]12C (stereo partly specified) | < 4.70 | > 20
CC(CCC(=O)O)C1CCC2C3C(=O)C[C@@H]4CC(=O)CC[C@]4(C)C3CC(=O)[C@]12C (stereo partly specified) | < 4.70 | > 20
C#CCOC[C@@H]1CO[C@@](Cn2ccnc2)(c2ccc(Cl)cc2Cl)O1 | < 4.70 | > 20
CN1[C@@H]2C[C@@H](OC(=O)[C@@](O)(CO)c3ccccc3)C[C@H]1[C@@H]1O[C@@H]12 | < 4.70 | > 20
CSCC1CN(/N=C/c2ccc([N+](=O)[O-])o2)C(=O)O1 (stereo unspecified) | < 4.70 | > 20
Cc1cccc(C)c1NC(=O)NCCCNC(C)C | < 4.70 | > 20
C=CCN1CCC23c4c5ccc(O)c4OC2C(O)C=CC3C1C5 (stereo unspecified) | < 4.70 | > 20
C/C(=N\N=C(/S)N/N=C(\S)Nc1ccccc1Cl)c1ccccn1 | < 4.70 | > 20
C=CCNc1nc(NCC=C)nc(N2CCC(NCC(c3ccc(F)cc3)c3ccc(F)cc3)CC2)n1 | < 4.70 | > 20
C[C@@H]1[C@@H]2Cc3ccc(O)cc3C1(C)CCN2C | < 4.70 | > 20
